Measurements from patent US11319321B2, “[1,2,4]triazolo[1,5-a]pyrimidine compounds as PDE2 inhibitors” (Janssen Pharmaceutica NV, priority 2016, dated 2022).
Where two headings read alike, the source gives them in different places.

Key:
[1] = target: T1, Human recombinant PDE2A (hPDE2A) (Homo sapiens, UniProt O00408); assay: In vitro assay PDE2A (SPA, 3H-cGMP); type: biochemical
T1 construct: made in house; host or cells: Sf9 insect cells (baculovirus)
Procedure: Human recombinant PDE2A (hPDE2A) was expressed in Sf9 cells using a recombinant rPDE10A baculovirus construct. Cells were harvested after 48 h of infection and the hPDE2A protein was purified by metal chelate chromatography on Ni-sepharose 6FF. Tested compounds were dissolved and diluted in 100% DMSO to a concentration 100 fold of the final concentration in the assay. Compound dilutions (0.4 μl) were added in 384 well plates to 20 μl of incubation buffer (50 mM Tris pH 7.8, 8.3 mM MgCl2, 1.7 mM EGTA). 10 μl of hPDE2A enzyme in incubation buffer was added and the reaction was started by addition of 10 μl substrate to a final concentration of 10 μM cGMP and 0.01 μCi ^3H-cGMP. The reaction was incubated for 45 minutes at room temperature. […] After sedimentation of the beads during 30 minutes the radioactivity was measured in a Perkin Elmer Topcount scintillation counter and results were expressed as cpm. For blanc values the enzyme was omitted from the reaction and replaced by incubation buffer. Control values were obtained by addition of a final concentration of 1% DMSO instead of compound.

[2] = test system: hPDE3B; assay: In vitro assay PDE3 (SPA, 3H-cAMP); type: biochemical, human; conditions: 0.4 μM cAMP substrate; for hPDE3B Emax: in % (unit assumed)
[3] = target: hPDE10A2 (Homo sapiens, UniProt Q9Y233); assay: biochemical; conditions: 60 nM cAMP substrate; for IC50: human clone, read-out: hPDE10A2 or rPDE10A2 pIC50 (converted); for Emax: read-out: hPDE10A2 or rPDE10A2 Emax, human clone
Procedure: Rat recombinant PDE10A (rPDE10A2) was expressed in Sf9 cells using a recombinant rPDE10A baculovirus construct. Cells were harvested after 48 h of infection and the rPDE10A protein was purified by metal chelate chromatography on Ni-sepharose 6FF. Tested compounds were dissolved and diluted in 100% DMSO to a concentration 100 fold of the final concentration in the assay. Human recombinant PDE10A ([…]) was expressed in Sf9 cells using a recombinant hPDE10A baculovirus that was made and amplified in house. Cells were harvested after 72 h of infection and the hPDE10A protein was purified by metal chelate chromatography on Ni-sepharose. Compound dilutions (0.4 μl) were added in 384 well plates to 20 μl of incubation buffer (50 mM Tris pH 7.8, 8.3 mM MgCl2, 1.7 mM EGTA). 10 μl of rPDE10A or hPDE10A enzyme in incubation buffer was added and the reaction was started by addition of 10 μl substrate to a final concentration of 60 nM cAMP and […] ^3H-cAMP. The reaction was incubated for 60 minutes at room temperature. After incubation, the reaction was stopped with 20 μl of stop solution consisting of 17.8 mg/ml PDE SPA (scintillation proximity assay) beads. After sedimentation of the beads during 30 minutes the radioactivity was measured in a Perkin Elmer Topcount scintillation counter and results were expressed as cpm. For blanc values the enzyme was omitted from the reaction and replaced by incubation buffer. Control values were obtained by addition of a final concentration of 1% DMSO instead of compound. A best fit curve is fitted by a minimum sum of squares method to the plot of % of control value substracted with blanc value versus compound concentration and the half maximal inhibitory concentration (IC50) value is derived from this curve.

[4] = hPDE2A pIC50, 10 μM cGMP substrate
[5] = 10 μM cGMP substrate, read-out: hPDE2A pIC50 (converted)

hPDE10A2, sequence (Q9Y233 267-1055): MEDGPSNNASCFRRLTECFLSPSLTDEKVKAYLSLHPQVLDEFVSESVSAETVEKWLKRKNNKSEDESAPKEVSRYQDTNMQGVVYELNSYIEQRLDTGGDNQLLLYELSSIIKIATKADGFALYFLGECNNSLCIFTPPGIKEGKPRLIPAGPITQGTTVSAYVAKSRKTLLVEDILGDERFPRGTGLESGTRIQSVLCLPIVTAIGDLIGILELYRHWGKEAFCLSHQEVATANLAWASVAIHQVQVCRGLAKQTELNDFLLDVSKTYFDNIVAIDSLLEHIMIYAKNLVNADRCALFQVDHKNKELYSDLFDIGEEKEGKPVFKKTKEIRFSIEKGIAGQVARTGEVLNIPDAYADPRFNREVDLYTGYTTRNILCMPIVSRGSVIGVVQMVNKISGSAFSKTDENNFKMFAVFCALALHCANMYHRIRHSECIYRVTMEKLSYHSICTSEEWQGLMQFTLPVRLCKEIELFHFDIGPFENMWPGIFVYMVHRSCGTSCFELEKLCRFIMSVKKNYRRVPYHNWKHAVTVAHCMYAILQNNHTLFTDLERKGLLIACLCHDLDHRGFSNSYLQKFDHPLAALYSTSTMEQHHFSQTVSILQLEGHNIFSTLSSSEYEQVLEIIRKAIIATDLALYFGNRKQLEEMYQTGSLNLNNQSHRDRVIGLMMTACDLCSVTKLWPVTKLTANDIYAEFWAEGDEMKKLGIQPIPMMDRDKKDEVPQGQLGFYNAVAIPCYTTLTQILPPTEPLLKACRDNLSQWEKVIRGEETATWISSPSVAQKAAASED
T1 sequence (O00408 whole entry): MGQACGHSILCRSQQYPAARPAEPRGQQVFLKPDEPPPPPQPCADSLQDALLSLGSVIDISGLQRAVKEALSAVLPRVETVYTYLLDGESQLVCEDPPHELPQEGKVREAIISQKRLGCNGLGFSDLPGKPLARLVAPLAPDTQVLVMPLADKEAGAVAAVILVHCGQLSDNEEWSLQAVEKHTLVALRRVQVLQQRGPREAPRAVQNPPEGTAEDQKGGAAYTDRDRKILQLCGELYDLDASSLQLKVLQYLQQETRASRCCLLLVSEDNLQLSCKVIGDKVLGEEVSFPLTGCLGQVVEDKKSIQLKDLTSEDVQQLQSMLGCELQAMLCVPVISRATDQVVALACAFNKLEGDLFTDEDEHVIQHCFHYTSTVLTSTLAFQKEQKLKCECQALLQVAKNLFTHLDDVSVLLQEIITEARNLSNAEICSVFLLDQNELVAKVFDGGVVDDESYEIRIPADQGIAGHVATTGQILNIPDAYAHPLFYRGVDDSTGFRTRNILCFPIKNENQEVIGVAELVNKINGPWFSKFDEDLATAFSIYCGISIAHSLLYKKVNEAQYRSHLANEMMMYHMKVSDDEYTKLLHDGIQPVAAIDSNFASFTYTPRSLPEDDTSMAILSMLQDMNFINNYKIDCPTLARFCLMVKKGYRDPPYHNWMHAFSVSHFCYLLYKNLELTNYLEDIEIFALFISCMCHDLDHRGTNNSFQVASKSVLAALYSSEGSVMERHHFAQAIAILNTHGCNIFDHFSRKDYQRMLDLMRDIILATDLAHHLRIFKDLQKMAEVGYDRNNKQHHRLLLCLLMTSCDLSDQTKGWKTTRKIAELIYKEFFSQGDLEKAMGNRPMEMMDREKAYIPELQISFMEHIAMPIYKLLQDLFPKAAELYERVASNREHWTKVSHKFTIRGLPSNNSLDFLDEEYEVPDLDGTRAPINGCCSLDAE

## COc1ccc(CN2CC[C@@H](C)[C@@H](c3cc(C(F)F)nc4ncnn34)C2)c(OC)c1 [Compound 47]
[1]; 10 μM cGMP substrate
  Emax: 25%
[1]; [4]
  IC50: ~3470 nM
[2]
  hPDE3B pIC50: <5
  hPDE3B Emax: 27
[3]
  IC50: > 10000 nM
  Emax: 37%

## COc1ccc(CN2CC[C@H](C)[C@@H](c3cc(C(F)F)nc4ncnn34)C2)c(OC)c1.Cl [Compound 46]
[1]; 10 μM cGMP substrate
  Emax: 9%
[1]; [4]
  IC50: 7240 nM
[2]
  hPDE3B pIC50: <5
  hPDE3B Emax: 17
[3]
  IC50: > 10000 nM
  Emax: -6%

## C[C@@H]1CCN(Cc2ccc(C(F)(F)F)cc2)C[C@H]1c1cc(C(F)F)nc2ncnn12 [Compound 39]
[1]; 10 μM cGMP substrate
  Emax: 99%
[1]; [5]
  IC50: 170 nM
[3]
  IC50: 6170 nM
  Emax: 65%

## Cc1cc(CN2CC[C@@H](C)[C@H](c3cc(C(F)F)nc4ncnn34)C2)ccn1.Cl [Compound 15]
[1]
  IC50: 95.5 nM
[1]; 10 μM cGMP substrate
  Emax: 95%
[2]
  hPDE3B pIC50: <4.52
  hPDE3B Emax: 17
[3]
  IC50: ~10000 nM
  Emax: 45%

## C[C@@H]1CCN(Cc2cccc(C#N)n2)C[C@H]1c1cc(C(F)F)nc2ncnn12 [Compound 25]
[1]; 10 μM cGMP substrate
  Emax: 92%
[1]; [4]
  IC50: 1020 nM
[2]
  hPDE3B pIC50: <5
  hPDE3B Emax: 12
[3]
  IC50: > 10000 nM
  Emax: 28%

## Cc1cc(CN2CC[C@@H](C)[C@H](c3cc(C(F)F)nc4ncnn34)C2)cc(C2CC2)n1 [Compound 9]
[1]; 10 μM cGMP substrate
  Emax: 100%
[1]; [5]
  IC50: 5.25 nM
[2]
  hPDE3B pIC50: <5
  hPDE3B Emax: 34
[3]
  IC50: 1580 nM
  Emax: 83%

## Cc1csc(CN2CC[C@@H](C)[C@H](c3cc(C(F)F)nc4ncnn34)C2)c1.Cl [Compound 43]
[1]; 10 μM cGMP substrate
  Emax: 77%
[1]; [4]
  IC50: 347 nM
[2]
  hPDE3B pIC50: <5
  hPDE3B Emax: 0
[3]
  IC50: 6920 nM
  Emax: 44%

## Cc1cc(C(C)N2CC[C@@H](C)[C@H](c3cc(C(F)F)nc4ncnn34)C2)cc(C)n1 (mixture of isomers) [Compound 1]
[1]; 10 μM cGMP substrate
  Emax: 100%
[1]; [4]
  IC50: 20.9 nM
[2]
  hPDE3B pIC50: <5
  hPDE3B Emax: 45
[3]
  IC50: 2950 nM
  Emax: 74%

## CC(C)CN1CC[C@@H](C)[C@H](c2cc(C(F)F)nc3ncnn23)C1 [Compound 29]
[1]; 10 μM cGMP substrate
  Emax: 3%
[1]; [4]
  IC50: ~8710 nM
[2]
  hPDE3B pIC50: <5
  hPDE3B Emax: −14
[3]
  IC50: > 10000 nM
  Emax: 3%

## C[C@@H]1CCN([C@@H](C)c2ccc3ncsc3c2)C[C@H]1c1cc(C(F)F)nc2ncnn12 (single isomer, unassigned) [Compound 13]
[1]
  IC50: 58.9 nM
[1]; 10 μM cGMP substrate
  Emax: 98%
[2]
  hPDE3B pIC50: ~5.02
  hPDE3B Emax: 47
[3]
  IC50: 1480 nM
  Emax: 85%

## C[C@H]1CCN(Cc2ccc(F)c(F)c2)C[C@@H]1c1cc(C(F)F)nc2ncnn12.Cl [Compound 41]
[1]; 10 μM cGMP substrate
  Emax: 33%
[1]; [5]
  IC50: 1950 nM
[2]
  hPDE3B pIC50: <5
  hPDE3B Emax: 20
[3]
  IC50: > 10000 nM
  Emax: 15%

## Cc1cc(CN2CC[C@@H](C)[C@@](F)(c3cc(C(F)F)nc4ncnn34)C2)cc(C)n1 (single isomer, unassigned) [Compound 49]
[1]; 10 μM cGMP substrate
  Emax: 86%
[1]; [4]
  IC50: 2140 nM
[2]
  hPDE3B pIC50: <5
  hPDE3B Emax: 17
[3]
  IC50: > 10000 nM
  Emax: 12%

## C[C@@H]1CCN([C@H](C)c2ccc(C(F)(F)F)cc2)C[C@H]1c1cc(C(F)F)nc2ncnn12 (relative stereo) [Compound 7]
[1]
  IC50: 102 nM
[1]; 10 μM cGMP substrate
  Emax: 98%
[2]
  hPDE3B pIC50: 5.08
  hPDE3B Emax: 57
[3]
  IC50: 7760 nM
  Emax: 47%

## Cl.FC(F)Oc1cccc(CN2[C@H]3CC[C@H](c4cc(C(F)F)nc5ncnn45)[C@@H]2CC3)c1 [Compound 56]
[1]
  IC50: 525 nM
[1]; 10 μM cGMP substrate
  Emax: 97%
[2]
  hPDE3B pIC50: <5
  hPDE3B Emax: 26
[3]
  IC50: > 10000 nM
  Emax: 43%

## C[C@@H]1CCN(Cc2nccc3ccccc23)C[C@H]1c1cc(C(F)F)nc2ncnn12 [Compound 19]
[1]
  IC50: 324 nM
[1]; 10 μM cGMP substrate
  Emax: 96%
[2]
  hPDE3B pIC50: <5
  hPDE3B Emax: 35
[3]
  IC50: 8510 nM
  Emax: 58%

## C[C@@H]1CCN(Cc2cccc(OC(F)(F)F)c2)C[C@H]1c1cc(C(F)F)nc2ncnn12 [Compound 24]
[1]
  IC50: 692 nM
[1]; 10 μM cGMP substrate
  Emax: 96%
[3]
  IC50: 7240 nM
  Emax: 58%

## C[C@@H]1CCN(Cc2ccc(F)c(F)c2)C[C@H]1c1cc(C(F)F)nc2ncnn12.Cl [Compound 40]
[1]; 10 μM cGMP substrate
  Emax: 42%
[1]; [5]
  IC50: 1120 nM
[2]
  hPDE3B pIC50: <5
  hPDE3B Emax: 10
[3]
  IC50: > 10000 nM
  Emax: 35%

## Cc1cc([C@H](C)N2CC[C@@H](C)[C@H](c3cc(C(F)F)nc4ncnn34)C2)cc(Cl)n1 (single isomer, unassigned) [Compound 4]
[1]; 10 μM cGMP substrate
  Emax: 99%
[1]; [5]
  IC50: 7.76 nM
[2]
  hPDE3B pIC50: <5
  hPDE3B Emax: 45
[3]
  IC50: 1100 nM
  Emax: 88%

## Cc1cc([C@@H](C)N2CC[C@@H](C)[C@H](c3cc(C(F)F)nc4ncnn34)C2)cc(Cl)n1 (single isomer, unassigned) [Compound 5]
[1]; 10 μM cGMP substrate
  Emax: 100%
[1]; [5]
  IC50: 77.6 nM
[2]
  hPDE3B pIC50: 5.13
  hPDE3B Emax: 55
[3]
  IC50: 1510 nM
  Emax: 87%

## C[C@@H]1CCN(Cc2cn(C)c3ccccc23)C[C@H]1c1cc(C(F)F)nc2ncnn12.Cl [Compound 35]
[1]; 10 μM cGMP substrate
  Emax: 102%
[1]; [4]
  IC50: 47.9 nM
[2]
  hPDE3B pIC50: <5
  hPDE3B Emax: 22
[3]
  IC50: 7590 nM
  Emax: 53%

## C[C@@H]1CCN([C@@H](C)c2ccc(C(F)(F)F)cc2)C[C@H]1c1cc(C(F)F)nc2ncnn12 (relative stereo) [Compound 6]
[1]
  IC50: 178 nM
[1]; 10 μM cGMP substrate
  Emax: 99%
[2]
  hPDE3B pIC50: <5
  hPDE3B Emax: 37
[3]
  IC50: 6310 nM
  Emax: 68%

## Cc1cc(CN2CCC(C)C(F)(c3cc(C(F)F)nc4ncnn34)C2)cc(C)n1 (centres unmarked) [Compound 51]
[1]; 10 μM cGMP substrate
  Emax: 91%
[1]; [4]
  IC50: 2950 nM
[2]
  hPDE3B pIC50: 5.11
  hPDE3B Emax: 67
[3]
  IC50: > 10000 nM
  Emax: 28%

## Cc1nn(C)cc1CN1CC[C@@H](C)[C@H](c2cc(C(F)F)nc3ncnn23)C1.Cl [Compound 52]
[1]; 10 μM cGMP substrate
  Emax: 31%
[1]; [4]
  IC50: ~2340 nM
[2]
  hPDE3B pIC50: <5
  hPDE3B Emax: 1
[3]
  IC50: > 10000 nM
  Emax: 9%

## Cl.FC(F)c1cc([C@H]2CC[C@H]3CC[C@@H]2N3Cc2ccc(Cl)c(Cl)c2)n2ncnc2n1 [Compound 57]
[1]
  IC50: 105 nM
[1]; 10 μM cGMP substrate
  Emax: 100%
[2]
  hPDE3B pIC50: <5
  hPDE3B Emax: 35
[3]
  IC50: 7940 nM
  Emax: 58%

## C[C@@H]1CCN(Cc2ccc(F)c(F)c2)C[C@@H]1c1cc(C(F)F)nc2ncnn12 [Compound 42]
[1]; 10 μM cGMP substrate
  Emax: 22%
[1]; [5]
  IC50: 3390 nM
[2]
  hPDE3B pIC50: <5
  hPDE3B Emax: 19
[3]
  IC50: > 10000 nM
  Emax: 45%

## C[C@@H]1CCN(Cc2cc3ccccc3o2)C[C@H]1c1cc(C(F)F)nc2ncnn12.Cl [Compound 38]
[1]; 10 μM cGMP substrate
  Emax: 88%
[1]; [4]
  IC50: 162 nM
[2]
  hPDE3B pIC50: <5
  hPDE3B Emax: 28
[3]
  IC50: 4680 nM
  Emax: 69%

## Cc1cc(CN2CC[C@H](C)[C@@H](c3cc(C(F)F)nc4ncnn34)C2)ccn1.Cl [Compound 16]
[1]
  IC50: 5890 nM
[1]; 10 μM cGMP substrate
  Emax: 4%
[2]
  hPDE3B pIC50: <5
  hPDE3B Emax: 23
[3]
  IC50: > 10000 nM
  Emax: 10%

## C[C@@H]1CCN(Cc2ccc(C#N)cc2)C[C@H]1c1cc(C(F)F)nc2ncnn12 [Compound 21]
[1]
  IC50: 468 nM
[1]; 10 μM cGMP substrate
  Emax: 97%
[2]
  hPDE3B pIC50: <5
  hPDE3B Emax: 24
[3]
  IC50: ~10000 nM
  Emax: 48%
